Consider 13 molecules from ChEMBL document CHEMBL1782028, “Evaluation of structurally diverse neuronal nicotinic receptor ligands for selectivity at the alpha6( *) subtype” (Bioorg Med Chem Lett, 2009).

For experiment [1], the target named is T1, Nicotinic acetylcholine receptor alpha-4/beta-2 (Mus musculus, UniProt Q8R493+Q9ERK7). The experiment in a line: Displacement of [125I]epibatidine from alpha4beta2* nAChR in C57BL/6J mouse cortical membrane by gamma counting. In kind it is cell membranes. On the technique in general: In a radioligand displacement assay an active substance lowers the binding of a labelled ligand.
T1 sequence (Q9ERK7 whole entry): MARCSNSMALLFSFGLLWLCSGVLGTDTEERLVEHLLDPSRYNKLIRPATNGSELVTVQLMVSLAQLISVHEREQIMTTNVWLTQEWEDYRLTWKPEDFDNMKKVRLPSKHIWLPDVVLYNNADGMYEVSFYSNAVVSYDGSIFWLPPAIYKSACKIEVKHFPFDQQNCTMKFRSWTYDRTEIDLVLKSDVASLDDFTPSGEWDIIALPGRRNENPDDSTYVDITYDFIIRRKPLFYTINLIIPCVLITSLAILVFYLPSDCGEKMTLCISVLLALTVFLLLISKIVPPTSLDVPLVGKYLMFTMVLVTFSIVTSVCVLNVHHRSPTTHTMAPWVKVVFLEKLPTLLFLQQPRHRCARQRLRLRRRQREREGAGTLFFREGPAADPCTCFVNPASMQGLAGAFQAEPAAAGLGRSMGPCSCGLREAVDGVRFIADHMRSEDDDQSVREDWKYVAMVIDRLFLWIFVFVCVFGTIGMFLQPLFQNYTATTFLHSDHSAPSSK
T1 sequence (Q8R493 whole entry): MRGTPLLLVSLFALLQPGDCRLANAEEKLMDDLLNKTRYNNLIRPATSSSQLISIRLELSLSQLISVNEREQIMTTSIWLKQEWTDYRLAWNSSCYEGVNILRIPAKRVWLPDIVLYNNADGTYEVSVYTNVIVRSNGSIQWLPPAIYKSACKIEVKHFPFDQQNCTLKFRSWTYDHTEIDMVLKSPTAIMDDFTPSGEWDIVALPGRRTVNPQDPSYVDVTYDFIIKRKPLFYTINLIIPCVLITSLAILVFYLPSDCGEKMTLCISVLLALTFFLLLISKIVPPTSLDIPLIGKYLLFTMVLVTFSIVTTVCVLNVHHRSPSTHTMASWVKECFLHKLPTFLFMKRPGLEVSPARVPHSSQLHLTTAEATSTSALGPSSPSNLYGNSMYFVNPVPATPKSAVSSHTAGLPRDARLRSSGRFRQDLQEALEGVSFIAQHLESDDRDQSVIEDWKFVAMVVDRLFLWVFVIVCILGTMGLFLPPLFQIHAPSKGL

Experiment [2] concerns the target T2, Neuronal acetylcholine receptor subunit alpha-3/beta-4 (Mus musculus, UniProt Q8R493+Q8R4G9). Description: Activity at alpha3beta4* nAChR in mouse interpeduncular nucleus assessed as [3H]ACh release by scintillation counting relative to control. In kind it is tissue-based.
For experiment [3], the target named is Neuronal acetylcholine receptor subunit alpha-7 (Mus musculus, UniProt P49582). Description: Displacement of [125I]alpha-bungarotoxin from alpha7 nAChR in C57BL/6J mouse hippocampal membrane. It counts as tissue-based, Hippocampus.
Experiment [4] can be described thus: Selectivity ratio, ratio of EC50 for alpha3beta4* nAChR in mouse to EC50 for alpha6beta2*nAChR in mouse.
Experiment [5] has as its target T1, Nicotinic acetylcholine receptor alpha-4/beta-2. Description: Activity at alpha4beta2*nAChR in mouse striatal synaptosomes assessed as alpha-conotoxic MII-resistant DA release. It counts as subcellular, Brain.
For experiment [6], the target named is Nicotinic acetylcholine receptor alpha-4/beta-2 (Mus musculus) (UniProt Q9ERK7+Q8R493). The experiment in a line: Activity at alpha4beta2*nAChR in mouse striatal synaptosomes assessed as alpha-conotoxic MII-resistant DA release relative to control. It counts as subcellular. To be noted: Brain.
The target of experiment [7] is T3, Neuronal acetylcholine receptor subunit alpha-6/beta-2 (Mus musculus, UniProt Q9ERK7+Q9R0W9). Description: Displacement of [125I]-alpha-Conotoxin MII from alpha6beta2* nAChR in mouse olfactory tubercles, striatum and superior coliculus. It counts as tissue-based, Olfactory tubercle.
T3 sequence (Q9ERK7 whole entry): as the sequence (Q9ERK7 whole entry) above
T3 sequence (Q9R0W9 whole entry): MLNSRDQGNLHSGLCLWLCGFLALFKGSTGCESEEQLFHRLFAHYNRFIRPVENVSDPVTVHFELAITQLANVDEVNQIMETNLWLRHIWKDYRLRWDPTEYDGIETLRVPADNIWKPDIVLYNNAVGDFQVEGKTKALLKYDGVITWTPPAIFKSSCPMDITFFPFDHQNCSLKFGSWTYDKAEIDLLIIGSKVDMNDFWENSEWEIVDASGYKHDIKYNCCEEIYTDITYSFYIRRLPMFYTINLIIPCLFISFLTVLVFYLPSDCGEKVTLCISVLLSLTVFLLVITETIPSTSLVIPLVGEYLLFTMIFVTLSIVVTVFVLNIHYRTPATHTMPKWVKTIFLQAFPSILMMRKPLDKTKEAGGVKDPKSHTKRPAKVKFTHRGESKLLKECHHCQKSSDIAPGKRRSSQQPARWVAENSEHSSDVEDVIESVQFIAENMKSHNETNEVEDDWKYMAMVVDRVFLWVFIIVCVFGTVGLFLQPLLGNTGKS
Experiment [8] concerns the target Neuronal acetylcholine receptor subunit alpha-4/alpha-6/beta-2/beta-3 (Mus musculus) (UniProt Q9ERK7+O70174+Q9R0W9+Q8BMN3). Description: Activity at alpha6alpha4beta3beta2 nAChR in mouse striatal synaptosomes assessed as alpha-conotoxic […] DA release relative to control. It counts as subcellular. To be noted: Brain.
Experiment [9] addresses T2, Neuronal acetylcholine receptor subunit alpha-3/beta-4. The experiment in a line: Activity at alpha3beta4* nAChR in mouse interpeduncular nucleus assessed as [3H]ACh release by scintillation counting. It counts as tissue-based.
Experiment [10] can be described thus: Selectivity ratio, ratio of EC50 for alpha3beta4* nAChR in mouse to EC50 for alpha4beta2*nAChR in mouse.
Experiment [11] concerns the target Neuronal acetylcholine receptor subunit alpha-4/alpha-6/beta-2/beta-3 (Mus musculus, UniProt O70174+Q8BMN3+Q9ERK7+Q9R0W9). The experiment in a line: (§1) Activity at alpha6alpha4beta3beta2 nAChR in mouse striatal synaptosomes assessed as alpha-conotoxic […] DA release. In kind it is subcellular, Brain.
Experiment [12] can be described thus: Selectivity ratio, ratio of EC50 for alpha3beta4* nAChR in mouse to Ki for alpha4beta2*nAChR in mouse.
Experiment [13] has as its target T3, Neuronal acetylcholine receptor subunit alpha-6/beta-2. The experiment in a line: Inhibition of mouse alpha6alpha4beta3beta2 nAChR. It counts as protein-complex assay.
Experiment [14] is described as follows: Selectivity ratio, ratio of EC50 for alpha3beta4* nAChR in mouse to Ki for alpha6beta2*nAChR in mouse.
Experiment [15] has as its target Neuronal acetylcholine receptor subunit alpha-4/alpha-6/beta-2/beta-3 (Mus musculus, UniProt Q9ERK7+O70174+Q9R0W9+Q8BMN3). The description is as §1. It counts as subcellular, Brain.

Structures are written as SMILES.

Sequence of Neuronal acetylcholine receptor subunit alpha-4/alpha-6/beta-2/beta-3 (Mus musculus) (O70174 31-629 partner limits assumed): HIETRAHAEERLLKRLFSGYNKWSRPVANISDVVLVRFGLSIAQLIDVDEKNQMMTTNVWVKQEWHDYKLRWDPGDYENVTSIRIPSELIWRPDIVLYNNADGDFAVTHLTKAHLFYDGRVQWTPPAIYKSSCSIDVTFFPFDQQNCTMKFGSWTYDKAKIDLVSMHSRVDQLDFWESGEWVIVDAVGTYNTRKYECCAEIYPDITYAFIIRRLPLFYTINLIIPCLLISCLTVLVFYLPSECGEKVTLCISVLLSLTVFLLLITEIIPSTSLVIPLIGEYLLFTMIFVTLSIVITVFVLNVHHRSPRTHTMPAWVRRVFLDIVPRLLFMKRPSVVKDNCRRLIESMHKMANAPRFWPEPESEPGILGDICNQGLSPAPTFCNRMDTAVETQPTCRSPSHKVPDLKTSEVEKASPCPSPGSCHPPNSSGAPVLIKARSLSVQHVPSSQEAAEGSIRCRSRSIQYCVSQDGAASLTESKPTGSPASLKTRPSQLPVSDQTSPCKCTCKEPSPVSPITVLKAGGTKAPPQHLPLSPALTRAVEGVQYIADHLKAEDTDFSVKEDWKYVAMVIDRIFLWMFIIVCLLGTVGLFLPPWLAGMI
Sequence of Neuronal acetylcholine receptor subunit alpha-4/alpha-6/beta-2/beta-3 (Mus musculus) (Q8BMN3 31-464 partner limits assumed): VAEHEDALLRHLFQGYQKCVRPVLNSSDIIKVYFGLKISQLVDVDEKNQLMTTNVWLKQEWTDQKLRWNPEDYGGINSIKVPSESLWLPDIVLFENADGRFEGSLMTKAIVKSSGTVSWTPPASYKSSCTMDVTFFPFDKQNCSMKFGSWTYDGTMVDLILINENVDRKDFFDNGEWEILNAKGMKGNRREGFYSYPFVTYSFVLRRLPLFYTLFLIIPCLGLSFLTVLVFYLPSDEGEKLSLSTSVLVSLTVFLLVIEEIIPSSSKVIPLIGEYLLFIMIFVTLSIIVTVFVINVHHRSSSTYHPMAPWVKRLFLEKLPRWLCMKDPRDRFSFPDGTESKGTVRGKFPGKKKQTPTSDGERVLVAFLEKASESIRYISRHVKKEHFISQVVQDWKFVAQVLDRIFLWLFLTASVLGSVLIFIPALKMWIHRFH
Sequence of Neuronal acetylcholine receptor subunit alpha-4/alpha-6/beta-2/beta-3 (Mus musculus) (Q9ERK7 26-501 limits assumed): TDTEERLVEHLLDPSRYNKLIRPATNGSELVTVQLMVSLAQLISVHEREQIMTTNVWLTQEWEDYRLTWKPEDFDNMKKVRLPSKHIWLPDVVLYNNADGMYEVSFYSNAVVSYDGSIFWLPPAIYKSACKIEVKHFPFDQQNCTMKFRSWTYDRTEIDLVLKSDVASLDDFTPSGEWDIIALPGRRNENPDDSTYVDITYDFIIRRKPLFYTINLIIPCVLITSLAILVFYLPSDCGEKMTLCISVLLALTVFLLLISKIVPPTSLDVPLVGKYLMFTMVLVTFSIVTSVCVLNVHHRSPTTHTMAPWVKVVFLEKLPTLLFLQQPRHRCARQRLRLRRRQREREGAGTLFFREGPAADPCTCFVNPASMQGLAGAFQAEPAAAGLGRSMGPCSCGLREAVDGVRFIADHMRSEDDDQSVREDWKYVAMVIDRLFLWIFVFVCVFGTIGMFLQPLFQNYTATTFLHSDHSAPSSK
Sequence of Neuronal acetylcholine receptor subunit alpha-4/alpha-6/beta-2/beta-3 (Mus musculus) (Q9R0W9 31-494 partner limits assumed): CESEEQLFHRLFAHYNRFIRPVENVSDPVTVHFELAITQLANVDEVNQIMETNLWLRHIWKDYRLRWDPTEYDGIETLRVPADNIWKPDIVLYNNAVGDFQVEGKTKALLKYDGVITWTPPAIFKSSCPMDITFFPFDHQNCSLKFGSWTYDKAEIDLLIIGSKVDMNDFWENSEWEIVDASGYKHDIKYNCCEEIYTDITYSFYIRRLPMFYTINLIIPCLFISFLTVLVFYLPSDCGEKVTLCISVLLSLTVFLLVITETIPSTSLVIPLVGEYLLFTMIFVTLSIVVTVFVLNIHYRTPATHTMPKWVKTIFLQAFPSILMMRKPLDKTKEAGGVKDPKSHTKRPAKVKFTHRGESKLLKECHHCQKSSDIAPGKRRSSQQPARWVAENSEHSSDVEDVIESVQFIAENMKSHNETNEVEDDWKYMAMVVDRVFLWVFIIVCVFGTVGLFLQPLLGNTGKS
T2 sequence (Q8R493 whole entry): as the sequence (Q8R493 whole entry) above
T2 sequence (Q8R4G9 whole entry): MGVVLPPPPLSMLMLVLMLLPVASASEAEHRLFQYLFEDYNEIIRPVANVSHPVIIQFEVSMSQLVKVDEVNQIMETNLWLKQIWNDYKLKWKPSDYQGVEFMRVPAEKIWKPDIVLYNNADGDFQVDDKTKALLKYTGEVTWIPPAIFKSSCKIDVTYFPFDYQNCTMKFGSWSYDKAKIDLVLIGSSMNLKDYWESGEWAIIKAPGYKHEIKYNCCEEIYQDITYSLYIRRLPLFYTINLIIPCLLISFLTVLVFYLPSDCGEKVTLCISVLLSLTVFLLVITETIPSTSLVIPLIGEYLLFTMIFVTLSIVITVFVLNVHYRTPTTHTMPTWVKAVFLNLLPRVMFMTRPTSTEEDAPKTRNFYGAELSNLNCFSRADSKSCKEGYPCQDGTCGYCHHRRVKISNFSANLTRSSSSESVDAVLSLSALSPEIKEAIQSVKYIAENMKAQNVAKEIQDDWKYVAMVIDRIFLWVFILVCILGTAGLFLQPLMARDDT

Turning to `CN1C2C=C(c3cncnc3)CC1CC2.O=C(O)C(F)(F)F` (stereo not given), the Ki (as a rule, a dissociation constant, usually derived from enzyme kinetics or from competition with a known ligand) came out at 1.2 nM in experiment [1], 9100 nM in experiment [3] and 17 nM in [7]. Further, the figures for the EC50 in experiment [2], in [5] and in experiment [11] were 41000 nM, 1800 nM and 100 nM, respectively. In addition, the entries for the “Ratio EC50” value in [4] and in [10] were 410 and 22.7, respectively. For the same molecule, the Emax (as a rule, the maximal effect, on the per cent scale that the assay sets) was 45% in experiment [6], 77% in experiment [8] and 35% in experiment [9].

For `O=C(O)C(F)(F)F.c1ncc(CC2CC3CCN2CC3)cn1` (stereo not given), the Ki is 59 nM in experiment [1], 2590 nM in experiment [3], 115 nM in experiment [7] and 2500 nM in experiment [13]. In addition, the EC50 – broadly, the midpoint of the concentration-response curve – in [2] came out at 28000 nM. The results for the Imax in [6] and in [8] were 92% and 91%, respectively. Further, in [9], the Emax came to 106%. In addition, the Ratio came out at 87.5 in [12] and 11.2 in experiment [14].

Turning to `c1cncc(CC2CC3CCN2CC3)c1` (stereo not given), the Imax in experiment [8] is 96%.

`CNCC/C=C/c1cccnc1.O=C(O)[C@@H](O)[C@H](O)[C@H](O)[C@@H](O)C(=O)O`: the Ki was 25 nM in [1], more than 10000 nM in experiment [3] and 1550 nM in [7]. The results for the EC50 in [2], in [5] and in experiment [15] were 218000 nM, 8300 nM and “Not Active”, respectively. Further, the Emax in [6] came to 122%; in experiment [8] it was 0%; in [9], 45%. For the same molecule, in experiment [10], the “Ratio EC50” value is reported as 26.

As for `C(=C\[C@@H]1CCNC1)/c1cccnc1.O=C(O)C(F)(F)F`, the Ki stood at 11 nM in [1], 3160 nM in [3] and 184 nM in [7]. Besides, the EC50 in [2] stood at 16000 nM; in experiment [5], 4400 nM; in experiment [11], 800 nM. For the same molecule, the “Ratio EC50” value in experiment [4] amounted to 20; in experiment [10], 3.6. For the same molecule, the values for the Emax in experiment [6], in [8] and in [9] were 109%, 66% and 58%, respectively.

As to `CNCC/C=C/c1cncnc1.O=C(O)[C@@H](O)[C@H](O)[C@H](O)[C@@H](O)C(=O)O`, the Ki in experiment [1] is 69 nM; in experiment [3] it was more than 10000 nM; in experiment [7] it was 1060 nM. Also, the values for the EC50 in experiment [2], in experiment [5] and in [11] were 9500 nM, 5900 nM and 37000 nM, respectively. The “Ratio EC50” value in [4] turned out to be 0.26; in experiment [10], 1.6. In addition, the Emax in [6] was found to be 73%; in experiment [8] it was 80%; in [9], 4%.

For the molecule `O=C(O)C(F)(F)F.c1ncc(C2CC3CCN2CC3)cn1` (stereo not given), the Ki in experiment [1] is 1.8 nM; in experiment [3], 1100 nM; in [7], 8 nM. Moreover, the EC50 in [2] came to 2400 nM; in experiment [5], 450 nM; in experiment [11], 90 nM. The results for the “Ratio EC50” value in experiment [4] and in [10] were 26.7 and 5.3, respectively. The results for the Emax in [6], in experiment [8] and in experiment [9] were 43%, 104% and 95%, respectively.

As to `C(#C[C@H]1CCCN1)c1cncnc1.O=C(O)[C@@H](O)[C@H](O)[C@H](O)[C@@H](O)C(=O)O`, the “Ratio EC50” value in experiment [4] turned out to be 28; in experiment [10] it was 10.6.

Turning to `C(#C[C@H]1CCCN1)c1cncnc1`, the Ki in [1] came to 30 nM; in experiment [3], 5770 nM; in experiment [7] it was 340 nM. Moreover, the EC50 in experiment [2] amounted to 34000 nM; in experiment [5], 3200 nM; in experiment [11], 1200 nM. The maximal response (Emax) in experiment [6] came to 64%; in [8], 134%; in experiment [9], 74%.

`C(=C\[C@@H]1CCNC1)/c1cncnc1.O=C(O)[C@@H](O)[C@H](O)[C@H](O)[C@@H](O)C(=O)O`: the values for the Ki in [1], in experiment [3] and in experiment [7] were 24 nM, more than 10000 nM and 325 nM, respectively. The EC50 was determined as 161000 nM in experiment [2], 19000 nM in experiment [5] and 530 nM in experiment [11]. Further, the “Ratio EC50” value is listed as 304 in [4] and 8.5 in experiment [10]. In addition, the Emax in experiment [6] is 133%; in experiment [8], 48%; in experiment [9], 97%.

`C(#C[C@H]1CCCN1)c1cccnc1.O=C(O)[C@@H](O)[C@H](O)[C@H](O)[C@@H](O)C(=O)O`: the Ki was 20 nM in experiment [1], 733 nM in [3] and 242 nM in [7]. For the same molecule, the EC50 in experiment [2] amounted to 5600 nM; in [5], 13000 nM; in experiment [11], 700 nM. The “Ratio EC50” value is reported as 8 in experiment [4] and 0.4 in [10]. In addition, the Emax in experiment [6] worked out at 120%; in experiment [8], 42%; in experiment [9], 81%.

As to `c1cncc(C2CC3CCN2CC3)c1` (stereo not given), the Emax in [6] was found to be 29%.

With `CN1C2C=C(c3cccnc3)CC1CC2.Cl.Cl` (stereo not given), the Ki in experiment [1] came out at 9.8 nM; in [3] it was 2110 nM; in experiment [7], 55 nM. The figures for the EC50 in experiment [2], in experiment [5] and in experiment [11] were 21000 nM, 3400 nM and 200 nM, respectively. For the same molecule, the “Ratio EC50” value in experiment [4] was determined as 105; in experiment [10], 6.2. Moreover, the Emax in experiment [6] was 75%; in experiment [8], 50%; in experiment [9], 71%.
